From US11447503B2, “Pyridine carbamates and their use as GLUN2B receptor modulators” (JANSSEN PHARMACEUTICA NV, priority 2019, dated 2022)

Biological target: human GluN1/GluN2B NMDA receptors (Homo sapiens, UniProt Q05586+Q13224)
Assay: Cell-based calcium flux (FLIPR) assay on cloned human GluN1/GluN2B ion channels expressed in mammalian cells
Settings: standard assay; glutamate ~EC40, 10 μM glycine; stable Tet-On cell line
Experimental: 5.3. Biological Assays: Effect of Compounds of Formula (I) on Cloned Human GluN1/GluN2B Ion Channels Expressed in Mammalian Cells
NMDA receptors are ion channels that are highly permeable to Ca^2+ ions, rendering it possible to monitor NMDA receptor function using cell-based calcium flux assay. In this assay, co-agonists glutamate and glycine are added to cells heterologously expressing human GluN1/GluN2B NMDA receptors to initiate cellular Ca^2+ influx. The time course of the changes in intracellular calcium is measured using a fluorescent dye and a FLIPR (Fluorometric Imaging Plate Reader) device.
Twenty four hours before measurements, the expression of the NMDA receptors in the stable cell line is induced with Tet-On inducible system in the presence of a non-selective NMDA receptor blocker. On the day of the experiment, cell culture media is carefully washed and the cells are loaded with Calcium 5 Dye Kit (Molecular Devices) in dye loading buffer containing 137 mM NaCl, 4 mM KCl, 2 mM CaCl2, 0.5 mM MgCl2 (standard assay) or 1.5 mM MgCl2 (HTS assay), 10 mM HEPES and 5 mM D-glucose; pH 7.4. After 1 h incubation at the room temperature, the dye is washed away with the assay buffer (137 mM NaCl (standard assay) or 150 mM (HTS assay), 4 mM KCl (standard assay) or 3 mM (HTS assay), 2 mM CaCl2, 0.01 mM EDTA, 10 mM HEPES and 5 mM D-glucose; pH 7.4) In the FLIPR TETRA reader, various concentrations of the test compounds are added to the cells for 5 min while fluorescence is monitored to detect potential agonist activity. Next, co-agonists, glutamate and glycine are added for another 5 minutes. The concentration of glutamate corresponding to ˜EC40 (standard assay) or EC40 (HTS assay) is used to maximize the assay's signal window and ability to detect NMDA receptor antagonists and negative allosteric modulators. A saturating concentration (10 μM) of glycine is also present in the assay. A non-selective NMDA receptor antagonist, (+)MK-801 is used as a positive control for antagonist activity. The fluorescent signal in the presence of test compounds is quantified and normalized to the signal defined by the appropriate control wells.

Sequence of human GluN1/GluN2B NMDA receptors (Q13224 27-1484, other chains not shown): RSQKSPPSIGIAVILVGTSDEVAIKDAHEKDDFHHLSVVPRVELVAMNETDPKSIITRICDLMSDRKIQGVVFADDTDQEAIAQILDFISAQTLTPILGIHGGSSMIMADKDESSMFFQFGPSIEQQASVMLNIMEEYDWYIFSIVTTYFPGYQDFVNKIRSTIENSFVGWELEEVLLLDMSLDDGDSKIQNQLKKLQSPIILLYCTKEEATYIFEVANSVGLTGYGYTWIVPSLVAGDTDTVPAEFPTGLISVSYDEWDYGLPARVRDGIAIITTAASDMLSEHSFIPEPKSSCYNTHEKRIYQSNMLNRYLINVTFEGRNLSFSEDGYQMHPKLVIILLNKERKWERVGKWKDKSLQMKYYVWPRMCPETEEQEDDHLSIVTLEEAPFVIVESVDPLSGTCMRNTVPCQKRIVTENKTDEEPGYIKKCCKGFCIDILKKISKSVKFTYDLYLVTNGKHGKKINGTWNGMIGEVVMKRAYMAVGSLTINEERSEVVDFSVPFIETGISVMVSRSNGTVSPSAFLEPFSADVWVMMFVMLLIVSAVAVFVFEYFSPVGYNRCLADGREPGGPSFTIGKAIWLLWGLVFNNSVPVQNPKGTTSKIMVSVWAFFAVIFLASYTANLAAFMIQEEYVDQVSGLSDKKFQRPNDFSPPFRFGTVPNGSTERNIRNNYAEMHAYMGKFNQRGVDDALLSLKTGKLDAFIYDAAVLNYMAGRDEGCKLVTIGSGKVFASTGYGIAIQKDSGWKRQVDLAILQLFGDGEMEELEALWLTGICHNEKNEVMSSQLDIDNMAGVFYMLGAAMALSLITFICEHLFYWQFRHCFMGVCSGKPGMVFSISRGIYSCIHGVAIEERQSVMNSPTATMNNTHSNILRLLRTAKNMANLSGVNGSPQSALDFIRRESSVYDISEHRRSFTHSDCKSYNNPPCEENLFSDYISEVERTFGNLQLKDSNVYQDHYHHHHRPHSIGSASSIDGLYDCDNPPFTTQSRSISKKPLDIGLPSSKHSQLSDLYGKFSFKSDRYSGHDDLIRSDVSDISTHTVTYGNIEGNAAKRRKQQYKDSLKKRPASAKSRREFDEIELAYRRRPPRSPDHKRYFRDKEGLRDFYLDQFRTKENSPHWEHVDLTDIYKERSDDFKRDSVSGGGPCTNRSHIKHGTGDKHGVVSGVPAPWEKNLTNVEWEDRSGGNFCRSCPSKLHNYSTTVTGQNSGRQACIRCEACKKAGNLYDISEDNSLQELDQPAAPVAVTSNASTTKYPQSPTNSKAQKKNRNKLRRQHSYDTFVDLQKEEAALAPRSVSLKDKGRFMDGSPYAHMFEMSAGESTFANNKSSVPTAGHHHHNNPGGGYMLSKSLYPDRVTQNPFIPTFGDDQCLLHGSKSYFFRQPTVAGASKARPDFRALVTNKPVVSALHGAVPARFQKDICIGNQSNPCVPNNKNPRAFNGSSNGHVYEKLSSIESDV

IC50	SMILES
128 nM	Cc1ncc(-c2cccc(C(F)F)c2)cc1CN1CCCOC1=O [Example 62, 3-[[5-[3-(Difluoromethyl)phenyl]-2-methyl-3-pyridyl]methyl]-1,3-oxazinan-2-one]
174 nM	Cc1ncc(-c2cccc(OC(F)F)c2)cc1CN1CCCOC1=O [Example 63, 3-[[5-[3-(Difluoromethoxy)phenyl]-2-methyl-3-pyridyl]methyl]-1,3-oxazinan-2-one]
406 nM	Cc1ncc(-c2cccc(Cl)c2)cc1CN1CCCOC1=O [Example 64, 3-[[5-(3-Chlorophenyl)-2-methyl-3-pyridyl]methyl]-1,3-oxazinan-2-one]
30 nM	Cc1ncc(-c2ccc(F)c(Cl)c2)cc1CN1CCCOC1=O [Example 65, 3-[[5-(3-Chloro-4-fluoro-phenyl)-2-methyl-3-pyridyl]methyl]-1,3-oxazinan-2-one]
23 nM	Cc1cc(-c2cnc(C)c(CN3CCCOC3=O)c2)ccc1F [Example 66, 3-[[5-(4-Fluoro-3-methyl-phenyl)-2-methyl-3-pyridyl]methyl]-1,3-oxazinan-2-one]
344 nM	Cc1ncc(-c2ccc(F)c(F)c2)cc1CN1CCCOC1=O [Example 67, 3-[[5-(3,4-Difluorophenyl)-2-methyl-3-pyridyl]methyl]-1,3-oxazinan-2-one]
> 3000 nM	Cc1ncc(-c2ccc(F)cc2)cc1CN1CCCOC1=O [Example 68, 3-[[5-(4-Fluorophenyl)-2-methyl-3-pyridyl]methyl]-1,3-oxazinan-2-one]
3020 nM	Cc1ncc(-c2cccc(F)c2)cc1CN1CCCOC1=O [Example 69, 3-[[5-(3-Fluorophenyl)-2-methyl-3-pyridyl]methyl]-1,3-oxazinan-2-one]
13 nM	Cc1cc(-c2cnc(C)c(CN3CCCOC3=O)c2)cc(F)c1F [Example 70, 3-[[5-(3,4-Difluoro-5-methyl-phenyl)-2-methyl-3-pyridyl]methyl]-1,3-oxazinan-2-one]
22 nM	Cc1ncc(-c2ccc(F)c(C)c2F)cc1CN1CCCOC1=O [Example 71, 3-[[5-(2,4-Difluoro-3-methyl-phenyl)-2-methyl-3-pyridyl]methyl]-1,3-oxazinan-2-one]
2240 nM	Cc1ncc(-c2ccc(F)cc2F)cc1CN1CCCOC1=O [Example 72, 3-[[5-(2,4-Difluorophenyl)-2-methyl-3-pyridyl]methyl]-1,3-oxazinan-2-one]
19 nM	Cc1ncc(-c2ccc(Cl)c(Cl)c2)cc1CN1CCCOC1=O [Example 73, 3-[[5-(3,4-Dichlorophenyl)-2-methyl-3-pyridyl]methyl]-1,3-oxazinan-2-one]
50 nM	Cc1ncc(-c2cccc(C(F)(F)F)c2)cc1CN1CCCOC1=O [Example 74, 3-[[2-Methyl-5-[3-(Trifluoromethyl)phenyl]-3-pyridyl]methyl]-1,3-oxazinan-2-one]
39 nM	Cc1ncc(-c2ccc(F)c(C(F)(F)F)c2)cc1CN1CCCOC1=O [Example 75, 3-[[5-[4-Fluoro-3-(trifluoromethyl)phenyl]-2-methyl-3-pyridyl]methyl]-1,3-oxazinan-2-one]
19 nM	Cc1cc(-c2cnc(C)c(CN3CCOC3=O)c2)ccc1F [Example 76, 3-[[5-(4-Fluoro-3-methyl-phenyl)-2-methyl-3-pyridyl]methyl]oxazolidin-2-one]
13 nM	Cc1ncc(-c2ccc(F)c(C)c2F)cc1CN1CCOC1=O [Example 77, 3-[[5-(2,4-Difluoro-3-methyl-phenyl)-2-methyl-3-pyridyl]methyl]oxazolidin-2-one]

IC50	SMILES
32 nM	Cc1ncc(-c2ccc(F)c(C(C)(F)F)c2)cc1CN1CCOC1=O [Example 78, 3-[[5-[3-(1,1-Difluoroethyl)-4-fluoro-phenyl]-2-methyl-3-pyridyl]methyl]oxazolidin-2-one]
10 nM	Cc1ncc(-c2ccc(F)c(OC(F)F)c2)cc1CN1CCOC1=O [Example 79, 3-[[5-[3-(Difluoromethoxy)-4-fluoro-phenyl]-2-methyl-3-pyridyl]methyl] oxazolidin-2-one]
52 nM	Cc1ncc(-c2ccc(F)c(OC(F)F)c2)cc1CN1CC2(CC2)OC1=O [Example 84, 5-[[5-[3-(Difluoromethoxy)-4-fluoro-phenyl]-2-methyl-3-pyridyl]methyl]-7-oxa-5-azaspiro[2.4]heptan-6-one]
107 nM	Cc1ncc(-c2ccc(F)c(OC(F)F)c2)cc1CN1CC2(CCC2)OC1=O [Example 85, 6-[[5-[3-(Difluoromethoxy)-4-fluoro-phenyl]-2-methyl-3-pyridyl]methyl]-8-oxa-6-azaspiro[3.4]octan-7-one]
373 nM	Cc1ncc(-c2ccc(F)c(OC(F)F)c2)cc1CN1CC(C)(C)OC1=O [Example 87, 3-[[5-[3-(Difluoromethoxy)-4-fluoro-phenyl]-2-methyl-3-pyridyl]methyl]-5,5-dimethyl-oxazolidin-2-one]
22 nM	Cc1ncc(-c2ccc(F)c(OC(F)F)c2)cc1CN1CCCOC1=O [Example 88, 3-[[5-[3-(Difluoromethoxy)-4-fluoro-phenyl]-2-methyl-3-pyridyl]methyl]-1,3-oxazinan-2-one]
14 nM	Cc1ncc(-c2ccc(Cl)c(OC(F)F)c2)cc1CN1CCOC1=O [Example 89, 3-[[5-[4-Chloro-3-(difluoromethoxy)phenyl]-2-methyl-3-pyridyl]methyl]oxazolidin-2-one]
84 nM	Cc1ncc(-c2ccc(F)c(C(F)F)c2)cc1CN1CC2(CCC2)OC1=O [Example 91, 6-[[5-[3-(Difluoromethyl)-4-fluoro-phenyl]-2-methyl-3-pyridyl]methyl]-8-oxa-6-azaspiro[3.4]octan-7-one]
63 nM	Cc1ncc(-c2ccc(F)c(C(F)F)c2)cc1CN1C[C@@H](C)OC1=O [Example 92, (5R)-3-[[5-[3-(Difluoromethyl)-4-fluoro-phenyl]-2-methyl-3-pyridyl]methyl]-5-methyl-oxazolidin-2-one]
526 nM	Cc1ncc(-c2ccc(F)c(C(F)F)c2)cc1CN1CC(C)(C)OC1=O [Example 93, 3-[[5-[3-(Difluoromethyl)-4-fluoro-phenyl]-2-methyl-3-pyridyl]methyl]-5,5-dimethyl-oxazolidin-2-one]
31 nM	Cc1ncc(-c2ccc(F)c(C(F)F)c2)cc1CN1CC2(CC2)OC1=O [Example 96, 5-[[5-[3-(Difluoromethyl)-4-fluoro-phenyl]-2-methyl-3-pyridyl]methyl]-7-oxa-5-azaspiro[2.4]heptan-6-one]
187 nM	Cc1ncc(-c2ccc(Cl)s2)cc1CN1CCOC1=O [Example 98, 3-[[5-(5-Chloro-2-thienyl)-2-methyl-3-pyridyl]methyl]oxazolidin-2-one]
16 nM	Cc1ncc(-c2ccc(C(F)(F)F)s2)cc1CN1CCOC1=O [Example 99, 3-[[2-Methyl-5-[5-(trifluoromethyl)-2-thienyl]-3-pyridyl]methyl]oxazolidin-2-one]
42 nM	Cc1ncc(-c2ccc(C(F)F)s2)cc1CN1CCOC1=O [Example 100, 3-[[5-[5-(Difluoromethyl)-2-thienyl]-2-methyl-3-pyridyl]methyl]oxazolidin-2-one]
53 nM	COc1ncc(-c2cccc(C(F)(F)F)c2)cc1CN1CCOC1=O [Example 101, 3-[[2-Methoxy-5-[3-(trifluoromethyl)phenyl]-3-pyridyl]methyl]oxazolidin-2-one]
